Tested on: T1, glutaminase free asparaginase from Enterobacter cloacae
T1 construct: gene ansB; native, purified from culture supernatant (ammonium sulphate, DEAE-cellulose, Sephadex G-100); EC 3.5.1.1
Test: Nesslerization (ammonia release), Lineweaver-Burk plot
Format: biochemical
Settings: 0.05 M phosphate buffer pH 7.5, 37°C; L-asparagine 0.2–24 mM

Structure (SMILES): NC(=O)C[C@H](N)C(=O)O [L-asparagine]
- Km: 1580 µM

Reference: PMC4758734, “Purification and Characterization of Glutaminase Free Asparaginase from Enterobacter cloacae: In-Vitro Evaluation of Cytotoxic Potential against Human Myeloid Leukemia HL-60 Cells” (PLoS ONE, 2016)
